Results taken from patent US7956089B2, “Cyclopropanecarboxylate and pest controlling composition containing the same” (Sumitomo Chemical Company, Limited, priority 2007, dated 2011).

What was measured:
Culex pipiens pallens [1] = test: Test Example 1: topical application of acetone solution to the nota of female imagoes, death rate; type: in vivo; conditions: 0.015 μg of the test compound per mosquito, 0.005% (w/v) acetone solution, after 24 hours
Method: A 0.005% (w/v) solution of a test compound in acetone was prepared. The nota of 10 female imagoes of Culex pipiens pallens were treated with the acetone solution in an amount of 0.015 μg of the test compound per mosquito. Then, water and feed were given to the test mosquitoes. After 24 hours, the number of dead mosquitoes was counted, and a death rate was calculated (2 repetitions).

Culex pipiens pallens [2] = test: Test Example 2: vapor exposure over treated aluminum dish in an inverted cup, knockdown rate; type: in vivo; conditions: 0.002% (w/v) acetone solution, drug amount about 2 mg per 1 m^2, female imagos, after 60 minutes
Method: A 0.002% (w/v) solution of a test compound in acetone was prepared. Then, 0.64 ml of the acetone solution was dropped onto the bottom of an aluminum dish having a diameter of 9 cm. Then, acetone was air-dried (drug amount: about 2 mg per 1 m^2). Ten female imagos of Culex pipiens pallens were released in a polyethylene cup (diameter: 9 cm; height: 4.5 cm), and the upper opening portion of the polyethylene cup was covered with a 16 mesh nylon net. Next, the cup was inverted onto the aluminum dish. After 60 minutes, the number of knocked down mosquitoes was counted and a knockdown rate was calculated (2 repetitions). As a result, the knockdown rate of the present compound (1) was 70%.

SMILES	Death rate (%) (Culex pipiens pallens [1])	knockdown rate (Culex pipiens pallens [2]) [%]
COCc1c(F)c(F)c(COC(=O)[C@@H]2[C@@H](C)C2(C)C)c(F)c1F [Comparative compound (B), 4-methoxymethyl-2,3,5,6-tetrafluorobenzyl (1R)-trans-2,3,3-trimethylcyclopropanecarboxylate, reference compound]	55	–
C#CCc1c(F)c(F)c(COC(=O)[C@@H]2[C@@H](C)C2(C)C)c(F)c1F [Present compound (1), 4-(2-propynyl)-2,3,5,6-tetrafluorobenzyl (1R)-trans-2,2,3-trimethylcyclopropanecarboxylate]	95	70
